Source: EP1945226B1, “DRUG COMBINATION WITH ANALGESIC, ANTI-INFLAMMATORY AND DECONGESTIVE ACTIVITY” (Voicu, A. Victor, priority 2005, dated 2006)

Test system: edema induced by carrageenan
Test: experimental inflammation model with carrageenan at the rats' posterior paws
Type: in vivo, Wistar rats
Details: rat, administered independently
Experimental: The anti-inflammatory effect was found via the experimental inflammation model with carrageenan at the rats' posterior paws. For the experimental research, we used Wistar rats with 120±10g weight, in groups of 9 animals.
1% carrageenan saline solution was administered by subcutaneous injection (0.1 mL volume) In the posterior paw.
The anti-inflammatory combination was administered 1 hour before carrageenan. The posterior paws' dimensions were measured before and 3 hours after carrageenan solution injection. The contra lateral paw was used as reference. The following combination was used for the experiments:
This (combination, formulated as) suspension was administered orally (gavage), in dosage of 0.2 mL/100 g rat body weight.
Acetylsalicylic acid was administered independently, in doses of 250 mg/kg body weight, equivalent to the quantity used in the combination. Chlorpheniramine was also (independently) administered by oral route, as reference, in doses equivalent to 6 mg/kg body weight.

CC(=O)Oc1ccccc1C(=O)O [acetylsalicylic acid]
anti-inflammatory effect (reduces pow edema), mean value (250 mg/kg body weight): approximately 22%

CN(C)CCC(c1ccc(Cl)cc1)c1ccccn1 (centres unmarked) [chlorpheniramine]
anti-inflammatory effect (oral route, 6 mg/kg body weight): no anti-inflammatory effect
